What all share (assay type): cell-based
Experiment [1] relates to 2780AD. As to the kind of experiment: Potentiation of toxicity of various cytotoxic agents, potentiation index. The note with it: Taxol, compound 10 nM. As to the method: (§1) (b) Cells were cultured for four days with a titration of doxorubicin (0.263 nM-[…]) in the presence of a fixed concentration of each compound. Proliferation was quantified as described by Skehen et al, loc cit. The IC50 (concentration required to reduce proliferation to 50% of the untreated controls) for doxorubicin alone and with each compound were derived and used to calculate the potentiation index (PI):
(§2) The potentiation indices of a selection of compounds using a variety of cell lines and a variety of cytotoxics other than doxorubicin were measured following the protocol described above for doxorubicin, and the results are shown in Table D.

The test system of experiment [2] is H69/LX4. The description is as above. The following applies: for Potentiaton Index at RMA Concentration 10 nM: compound 10 nM; for Potentiaton Index at RMA Concentration 30 nM: compound 30 nM. As for the experimental part: as §1, §2
Experiment [3] relates to AR 1.0 cells. As to the kind of experiment: Potentiation of doxorubicin toxicity: proliferation assay, compound titrated against fixed doxorubicin (sulphorhodamine B). The note with it: Mus musculus, 96 h; with fixed doxorubicin (0.34 mm); four day incubation; read-out: Toxicity with Cytotoxic Agent (IC50 mM). As for the experimental part: The EMT6 mouse mammary carcinoma cell line and the MDR resistant subline AR 1.0 were cultured in RPMI 1640 medium containing 10% foetal calf serum and 2 mM glutamine at 37° C. in 5% CO2. Cells were passaged between 1 in 200 and 1 in 2000 in the case of the parental cell line and between 1 in 20 and 1 in 200 in the case of the MDR resistant subline, after trypsinisation (0.25% trypsin, 0.2 gl^−1, EDTA).
(a) Selected compounds of formula (I) were examined for their ability to potentiate the toxicity of doxorubicin in AR 1.0 cells. In initial proliferation assays compounds were titrated against a fixed concentration of doxorubicin ([…]) which alone is non-toxic to AR 1.0 cells. After a four day incubation with doxorubicin proliferation was measured using the colorimetric sulphorhodamine B assay (Skehan et al; J Natl. Cancer Inst. 82 pp 1107-1112 (1990)).

The structures appear in SMILES notation.

Turning to `COc1cc2c(cc1OC)CN(CCc1ccc(NC(=O)c3sccc3NC(=O)c3cnc4ccccc4c3)cc1)CC2` [Compound 3, Quinoline-3-carboxylic acid (2-{4-[2-(6,7-dimethoxy-3,4-dihydro-1H-isoquinolin-2-yl)-ethyl]-phenylcarbamoyl}-thiophen-3-yl)-amide], the “Potentiaton Index at RMA Concentration 10 nM” value in experiment [1] is recorded as 18. Besides, in experiment [2] (Vincristine), the “Potentiaton Index at RMA Concentration 10 nM” value came to 2 and the “Potentiaton Index at RMA Concentration 30 nM” value amounted to 79.

Take `COc1cc2c(cc1OC)CN(CCc1ccc(NC(=O)c3c(C)csc3NC(=O)c3cnc4ccccc4c3)cc1)CC2` [Compound 6, Quinoline-3-carboxylic acid (3-{4-[2-(6,7-dimethoxy-3,4-dihydro-1H-isoquinolin-2-yl)-ethyl]-phenylcarbamoyl}-4-methyl-thiophen-2-yl)-amide]: in experiment [2] (Taxol), the “Potentiaton Index at RMA Concentration 10 nM” value worked out at 1 and the “Potentiaton Index at RMA Concentration 30 nM” value turned out to be 3. Besides, the “Potentiaton Index at RMA Concentration 50 nM” value in experiment [2] (Taxol, compound 50 nM) is listed as 9.

Regarding `COc1ccc(CN(C)CCc2ccc(NC(=O)c3ccccc3NC(=O)c3cnc4ccccc4c3)cc2)cc1OC` [Compound 7, Quinoline-3-carboxylic acid [2-(4-{2-[(3,4-dimethoxy-benzyl)-methyl-amino]-ethyl}-phenylcarbamoyl)-phenyl]-amide], the “Potentiaton Index at RMA Concentration 10 nM” value in experiment [2] (Taxol) came to 2.2.

As usually defined, the IC50 is the concentration that gives 50% inhibition. As for `COc1cc2c(cc1OC)CN(CCNC(=O)c1ccccc1NC(=O)c1nccc3ccccc13)CC2` [Compound 27, Isoquinoline-1-carboxylic acid {2-[2-(6,7-dimethoxy-3,4-dihydro-1H-isoquinolin-2-yl)-ethylcarbamoyl]-phenyl}-amide], in experiment [3], the IC50 is 1000 nM.

As to `COc1cc2c(cc1OC)CN(CCNC(=O)c1ccccc1NC(=O)c1ccc3ccccc3n1)CC2` [Compound 28, Quinoline-2-carboxylic acid {2-[2-(6,7-dimethoxy-3,4-dihydro-1H-isoquinolin-2-yl)-ethylcarbamoyl]-phenyl}-amide], in experiment [3], the IC50 was 550 nM.

Consider `COc1cc2c(cc1OC)CN(CCNC(=O)c1ccccc1NC(=O)c1cc3ccccc3cn1)CC2` [Compound 29, Isoquinoline-3-carboxylic acid {2-[2-(6,7-dimethoxy-3,4-dihydro-1H-isoquinolin-2-yl)-ethylcarbamoyl]-phenyl}-amide], for which the IC50 in experiment [3] came to 300 nM.

For `COc1cc2c(cc1OC)CN(CCc1ccc(NC(=O)c3cc(F)ccc3NC(=O)c3cnc4ccccc4c3)cc1)CC2` [Compound 33, Quinoline-3-carboxylic acid (2-{4-[2-(6,7-dimethoxy-3,4-dihydro-1H-isoquinolin-2-yl)-ethyl]-phenylcarbamoyl}-4-fluoro-phenyl)-amide], the IC50 in experiment [3] was found to be 5 nM.

Regarding `COc1cc2c(cc1OC)CN(CCc1ccc(NC(=O)c3cc(OC)c(OC)cc3NC(=O)c3cnc4ccccc4c3)cc1)CC2` [Compound 34, Quinoline-3-carboxylic acid (2-{4-[2-(6,7-dimethoxy-3,4-dihydro-1H-isoquinolin-2-yl)-ethyl]-phenylcarbamoyl}-4,5-dimethoxy-phenyl)-amide], the IC50 in experiment [3] is 1.8 nM.

With `COc1cc2c(cc1OC)CN(CCc1ccc(NC(=O)c3cc4c(cc3NC(=O)c3cnc5ccccc5c3)OCO4)cc1)CC2` [Compound 35, Quinoline-3-carboxylic acid (6-{4-[2-(6,7-dimethoxy-3,4-dihydro-1H-isoquinolin-2-yl)-ethyl]-phenylcarbamoyl}-benzo[1,3]dioxol-5-yl)-amide], the IC50 in experiment [3] was determined as 1.4 nM.

As to `COc1cc2c(cc1OC)CN(CCc1ccc(NC(=O)c3ccc([N+](=O)[O-])cc3NC(=O)c3cnc4ccccc4c3)cc1)CC2` [Compound 36, Quinoline-3-carboxylic acid (2-{4-[2-(6,7-dimethoxy-3,4-dihydro-1H-isoquinolin-2-yl)-ethyl]-phenylcarbamoyl}-5-nitro-phenyl)-amide], the IC50 in experiment [3] amounted to 3.8 nM.

For the compound `COc1cc2c(cc1OC)CN(CCc1ccc(NC(=O)c3cc(C)ccc3NC(=O)c3cnc4ccccc4c3)cc1)CC2` [Compound 37, Quinoline-3-carboxylic acid (2-{4-[2-(6,7-dimethoxy-3,4-dihydro-1H-isoquinolin-2-yl)-ethyl]-phenylcarbamoyl}-4-methyl-phenyl)-amide], the IC50 in experiment [3] was determined as 15 nM.

On to `COc1cc2c(cc1OC)CN(CCc1ccc(NC(=O)c3ccc(C)cc3NC(=O)c3cnc4ccccc4c3)cc1)CC2` [Compound 38, Quinoline-3-carboxylic acid (2-{4-[2-(6,7-dimethoxy-3,4-dihydro-1H-isoquinolin-2-yl)-ethyl]-phenylcarbamoyl}-5-methyl-phenyl)-amide], for which, in experiment [3], the IC50 stood at 5 nM.

Take `COc1cc2c(cc1OC)CN(CCc1ccc(NC(=O)c3cc(Cl)ccc3NC(=O)c3cnc4ccccc4c3)cc1)CC2` [Compound 39, Quinoline-3-carboxylic acid (2-{4-[2-(6,7-dimethoxy-3,4-dihydro-1H-isoquinolin-2-yl)-ethyl]-phenylcarbamoyl}-4-chloro-phenyl)-amide]: the IC50 in experiment [3] was found to be 5 nM.

As to `COc1cc2c(cc1OC)CN(CCc1ccc(NC(=O)c3ccc(Cl)cc3NC(=O)c3cnc4ccccc4c3)cc1)CC2` [Compound 40, Quinoline-3-carboxylic acid (2-{4-[2-(6,7-dimethoxy-3,4-dihydro-1H-isoquinolin-2-yl)-ethyl]-phenylcarbamoyl}-5-chloro-phenyl)-amide], the IC50 in experiment [3] is 40 nM.

Turning to `COc1cc2c(cc1OC)CN(CCc1ccc(NC(=O)c3ccc(N)cc3NC(=O)c3cnc4ccccc4c3)cc1)CC2` [Compound 41, Quinoline-3-carboxylic acid (2-{4-[2-(6,7-dimethoxy-3,4-dihydro-1H-isoquinolin-2-yl)-ethyl]-phenylcarbamoyl}-5-amino-phenyl)-amide], in experiment [3], the IC50 is 4400 nM.

For the compound `COc1cc2c(cc1OC)CN(CCc1ccc(NC(=O)c3ccccc3NC(=O)c3ccc4ccccc4n3)cc1)CC2` [Compound 42, Quinoline-2-carboxylic acid (2-{4-[2-(6,7-dimethoxy-3,4-dihydro-1H-isoquinolin-2-yl)-ethyl]-phenylcarbamoyl}-phenyl)-amide], in experiment [3], the IC50 was determined as 70 nM.

`COc1cc2c(cc1OC)CN(CCc1ccc(NC(=O)c3ccccc3NC(=O)c3cnc4c(c3)CCCC4)cc1)CC2` [Compound 43, 5,6,7,8-Tetrahydroquinoline-3-carboxylic acid (2-{4-[2-(6,7-dimethoxy-3,4-dihydro-1H-isoquinolin-2-yl)-ethyl]-phenylcarbamoyl}-phenyl)-amide]: the IC50 in experiment [3] was 50 nM.

Consider `O=C(Nc1ccccc1C(=O)Nc1ccc(CCN2CCc3ccccc3C2)cc1)c1cnc2ccccc2c1` [Compound 44, Quinoline-3-carboxylic acid (2-{4-[2-(3,4-dihydro-1H-isoquinolin-2-yl)-ethyl]-phenylcarbamoyl}-phenyl)-amide], for which, in experiment [3], the IC50 was 0.35 nM.

As for `COc1cc2c(cc1OC)CN(Cc1ccc(NC(=O)c3ccccc3NC(=O)c3cnc4ccccc4c3)cc1)CC2` [Compound 45, Quinoline-3-carboxylic acid {2-[4-(6,7-dimethoxy-3,4-dihydro-1H-isoquinolin-2-ylmethyl)-phenylcarbamoyl]-phenyl}-amide], in experiment [3], the IC50 was 22 nM.

The record behind these values is US7524861B2, “Process for the preparation of a hydrate of an anthranilic acid derivative” (priority 2002, dated 2009).
